Columns and labels:
Format in all cases: in vivo
Sphaerotheca fuliginea = assay: whole plant or invertebrate; conditions: for % Efficacy: in vivo
[1] = tested on: Erysiphe graminis f.sp. hordei; assay: Erysiphe test (barley)/protective; conditions: Blumeria graminis, 168 h, protective, application rate 12.5 g/ha, evaluation 7 days after inoculation, read-out: Efficacy in %
Experimental: Erysiphe Test (Barley)/Protective
(§1) To produce a suitable preparation of active compound, 1 part by weight of active compound or active compound combination is mixed with the stated amounts of solvent and emulsifier, and the concentrate is diluted with water to the desired concentration.
(§2) To test for protective activity, young plants are sprayed with the preparation of active compound at the stated application rate.
After the spray coating has dried on, the plants are dusted with spores of Erysiphe graminis f.sp. hordei.
(§3) The plants are placed in a greenhouse at a temperature of approximately 20° C. and a relative atmospheric humidity of approximately 80% to promote the development of mildew postules.
(§4) Evaluation is carried out 7 days after the inoculation. 0% means an efficacy which corresponds to that of the control, whereas an efficacy of 100% means that no infection is observed.

Phytophthora infestans = assay: whole plant or invertebrate
Leptosphaeria nodorum = Leptosphaeria nodorum test (wheat)/protective; conditions: protective, application rate 25 g/ha, evaluation 10 days after inoculation
Experimental: Leptosphaeria nodorum Test (Wheat)/Protective
To produce a suitable preparation of active compound, 1 part by weight of active compound or active compound combination is mixed with the stated amounts of solvents and emulsifier, and the concentrate is diluted with water to the desired concentration.
(§5) To test for protective activity, young plants are sprayed with the preparation of active compound at the stated application rate. After the spray coating has dried on, the plants are sprayed with a spore suspension of Leptosphaeria nodorum. The plants remain in an incubation cabin at 20° C. and 100% relative atmospheric humidity for 48 hours.
The plants are placed in a greenhouse at a temperature of approximately 15° C. and a relative atmospheric humidity of 80%.
Evaluation is carried out 10 days after the inoculation. 0% means an efficacy which corresponds to that of the control, whereas an efficacy of 100% means that no infection is observed.

Pyrenophora teres = Pyrenophora teres test (barley)/protective; conditions: protective, application rate 25 g/ha, evaluation 7 days after inoculation
Experimental: Pyrenophora teres Test (Barley)/Protective
as §1
as §5, with “conidia” for “spore”, “Pyrenophora teres.” for “Leptosphaeria nodorum.”
The plants are then placed in a greenhouse at a temperature of approximately 20° C. and a relative atmospheric humidity of approximately 80%.
as §4

[2] = tested on: Erysiphe graminis f.sp. tritici; assay: Erysiphe test (wheat)/protective; conditions: protective, application rate 6.25 g/ha, evaluation 7 days after inoculation
Experimental: Erysiphe Test (Wheat)/Protective
as §1, §2
After the spray coating has dried on, the plants are dusted with spores of Erysiphe graminis f.sp. tritici.
as §3, §4

[3] = Podosphaera fuliginea, in Cucumis sativus, 240 h, read-out: % Efficacy
[4] = Phytophthora infestans, in Solanum lycopersicum, 72 h, read-out: % Efficacy

N#Cc1c(Cl)c(Cl)c(Cl)c(C#N)c1Cl [tetrachloro-isophthalo-dinitrile] gave a pest or weed control at 40 g/ha (Sphaerotheca fuliginea; [3]) of 0%.

O=[N+]([O-])/N=C1\NCCN1Cc1ccc(Cl)nc1 [imidacloprid (XXIV) (23), 1-[(6-chloro-3-pyridinyl)-methyl]-N-nitro-2-imidazolidinimine] gave a pest or weed control at 12.5 g/ha [1] of 0%.

O=[N+]([O-])c1cc(C(F)(F)F)c(Cl)c([N+](=O)[O-])c1Nc1ncc(C(F)(F)F)cc1Cl [fluazinam] showed a pest or weed control at 2.5 g/ha (Phytophthora infestans; [4]) of 32% and a pest or weed control at 2.5 g/ha (Sphaerotheca fuliginea; [3]) of 0%.

CO/C=C(/C(=O)OC)c1ccccc1Oc1cc(Oc2ccccc2C#N)ncn1 [azoxystrobin (XVII) (16), azoxystrobin] was tested, and the pest or weed control at 1 g/ha (Sphaerotheca fuliginea; [3]) was 37%.

For CC12CC1(C)C(=O)N(c1cc(Cl)cc(Cl)c1)C2=O (centres unmarked) [procymidone (XLII) (41), procymidone], the pest or weed control at 5 g/ha (Sphaerotheca fuliginea; [3]) was 0%.

Compound CCNC(=O)NC(=O)C(C#N)=NOC [cymoxanil (XLVI) (45), cymoxanil] has a pest or weed control at 2.5 g/ha (Phytophthora infestans; [4]) of 0% and a pest or weed control at 5 g/ha (Sphaerotheca fuliginea; [3]) of 15%.

In the case of CCC1(C(=O)NC(C)c2ccc(Cl)cc2)C(C)C1(Cl)Cl (centres unmarked) [N-[1-(4-chloro-phenyl)-ethyl]-2,2-dichloro-1-ethyl-3-methyl-cyclopropane-carboxamide], the pest or weed control at 5 g/ha (Sphaerotheca fuliginea; [3]) is reported as 10%.

Cc1ccc(-c2c(Cl)nc(C#N)n2S(=O)(=O)N(C)C)cc1 [cyamidazosulfamid (LXX IV)(73), cyamidazosulfamid] gave a pest or weed control at 0.5 g/ha (Phytophthora infestans; [4]) of 45% and a pest or weed control at 1 g/ha (Sphaerotheca fuliginea; [3]) of 0%.

With dichlofluanid the “% Efficacy” value (Sphaerotheca fuliginea) was 0%.

CC1(C(=O)Nc2ccc(O)c(Cl)c2Cl)CCCCC1 [fenhexamid (LII) (51), fenhexamid] showed a pest or weed control at 5 g/ha (Sphaerotheca fuliginea; [3]) of 10%.

COc1ccc(C(=CC(=O)N2CCOCC2)c2ccc(Cl)cc2)cc1OC [dimetomorph (XLV) (44), dimetomorph] gave a pest or weed control at 1 g/ha (Phytophthora infestans; [4]) of 23% and a pest or weed control at 1 g/ha (Sphaerotheca fuliginea; [3]) of 0%.

In the case of CC(C)NC(=O)N1CC(=O)N(c2cc(Cl)cc(Cl)c2)C1=O [iprodione (LXV) (64), iprodione], the pest or weed control at 5 g/ha (Sphaerotheca fuliginea; [3]) is reported as 0%.

With mancozeb [mancozeb (XLIII) (42)] the “% Efficacy” value (Phytophthora infestans; in vivo) was 23%.

Cc1cc(C)nc(Nc2ccccc2)n1 [pyrimethanil (XLIX)(48), pyrimethanil] gave a pest or weed control at 10 g/ha (Phytophthora infestans; [4]) of 11% and a pest or weed control at 5 g/ha (Sphaerotheca fuliginea; [3]) of 11%.

In the case of [Cl-].[Cu+2].[Cu+2].[OH-].[OH-].[OH-] [copper oxychloride (LXIV) (63), copper oxychloride], the “% Efficacy” value (Sphaerotheca fuliginea) is reported as 11%.

Compound Cc1noc(C)c1S(=O)(=O)n1c(Cl)nc2cc3c(cc21)OC(F)(F)O3 [Compound of the formula (LXXI) (70), 1-(3,5-dimethylisoxazole-4-sulphonyl)-2-chloro-6,6-difluoro-[1,3]-dioxolo-[4,5f]benzimidazole] has a pest or weed control at 12.5 g/ha [1] of 0%, an Efficacy in % (Leptosphaeria nodorum) of 0% and a pest or weed control at 1 g/ha (Sphaerotheca fuliginea; [3]) of 0%.

Compound COCC(=O)N(c1c(C)cccc1C)C(C)C(=O)OC (centres unmarked) [metalaxyl (XXVII)(26), metalaxyl] has a pest or weed control at 1 g/ha (Sphaerotheca fuliginea; [3]) of 11%.

In the case of CC(C)(C)C(=O)C(Oc1ccc(Cl)cc1)n1cncn1 (centres unmarked) [triadimefon (IX) (8), 1-(4-chloro-phenoxy)-3,3-dimethyl-1-(1,2,4-triazol-1-yl)-butan-2-one], the pest or weed control at 10 g/ha (Sphaerotheca fuliginea; [3]) is reported as 0%.

Work on O=C(Nc1ccccc1)N(Cc1ccc(Cl)cc1)C1CCCC1 [pencycuron (XXXVIII) (37), pencycuron] yielded a pest or weed control at 12.5 g/ha [1] of 50%, a pest or weed control at 10 g/ha (Phytophthora infestans; [4]) of 14% and a pest or weed control at 5 g/ha (Sphaerotheca fuliginea; [3]) of 30%.

CC#Cc1cc(C)nc(Nc2ccccc2)n1 [mepanipyrim (L) (49), mepanipyrim] was tested, and the pest or weed control at 5 g/ha (Phytophthora infestans; [4]) was 0% and the pest or weed control at 10 g/ha (Sphaerotheca fuliginea; [3]) was 11%.

Compound CC(C)(C)C(O)C(Oc1ccc(Cl)cc1)n1cncn1 (centres unmarked) [triadimenol (X) (9), 1-(4-chloro-phenoxy)-3,3-dimethyl-1-(1,2,4-triazol-1-yl)-butan-2-ol] has an Efficacy in % (Pyrenophora teres) of 30%, a pest or weed control at 5 g/ha (Phytophthora infestans; [4]) of 0% and a pest or weed control at 2.5 g/ha (Sphaerotheca fuliginea; [3]) of 0%.

Work on O=C1C2CC=CCC2C(=O)N1SC(Cl)(Cl)Cl (centres unmarked) [captan (LV) (54), captan] yielded a pest or weed control at 40 g/ha (Phytophthora infestans; [4]) of 0%.

With CCC(C)(NC(=O)c1cc(Cl)c(C)c(Cl)c1)C(=O)CCl (centres unmarked) [zoxamide (LXXIII)(72), zoxamide] the pest or weed control at 1 g/ha (Phytophthora infestans; [4]) was 19% and the pest or weed control at 1 g/ha (Sphaerotheca fuliginea; [3]) was 0%.

Work on C=CC1(C)OC(=O)N(c2cc(Cl)cc(Cl)c2)C1=O (centres unmarked) [vinclozolin] yielded a pest or weed control at 5 g/ha (Sphaerotheca fuliginea; [3]) of 10%.

In the case of CO/C=C(/C(=O)OC)c1ccccc1COc1cccc(C(F)(F)F)n1 [picoxystrobin (LXXXIII) (82), picoxystrobin], the pest or weed control at 2 g/ha (Sphaerotheca fuliginea; [3]) is reported as 0%.

With N#Cc1c[nH]cc1-c1cccc(Cl)c1Cl [fenpiclonil (XXVIII) (27), 4-(2,3-dichlorophenyl)-1H-pyrrole-3-carbonitrile] the pest or weed control at 2.5 g/ha (Sphaerotheca fuliginea; [3]) was 0%.

Compound S1SSSSSSS1 [sulphur (LXII) (62), sulphur] has a pest or weed control at 25 g/ha (Phytophthora infestans; [4]) of 0% and a pest or weed control at 25 g/ha (Sphaerotheca fuliginea; [3]) of 0%.

Compound CO/N=C(/C1=NOCCO1)c1ccccc1Oc1ncnc(Oc2ccccc2Cl)c1F [Compound of the formula (LXXII) (71)] has a pest or weed control at 12.5 g/ha [1] of 0%, an Efficacy in % (Leptosphaeria nodorum) of 40% and a pest or weed control at 2 g/ha (Sphaerotheca fuliginea; [3]) of 43%.

Cc1ccc2nc3sc(=O)sc3nc2c1 [chinomethionat] showed a pest or weed control at 20 g/ha (Phytophthora infestans; [4]) of 0%.

N#Cc1c[nH]cc1-c1cccc2c1OC(F)(F)O2 [fludioxonil (XXX) (29), fludioxonil] gave a pest or weed control at 12.5 g/ha [1] of 0% and a pest or weed control at 2.5 g/ha (Sphaerotheca fuliginea; [3]) of 0%.

Compound COC(=O)Nc1nc2ccccc2[nH]1 [carbendazim (XXXI) (30), carbendazim] has a pest or weed control at 2.5 g/ha (Sphaerotheca fuliginea; [3]) of 63%.

With CCCN(CC)CC1COC2(CCC(C(C)(C)C)CC2)O1 (centres unmarked) [spiroxamine (II) (1), 8-t-butyl-2-(N-ethyl-N-n-propyl-amino)-methyl-1,4-dioxaspiro-[5,4]-decane] the pest or weed control at 10 g/ha (Phytophthora infestans; [4]) was 0% and the pest or weed control at 5 g/ha (Sphaerotheca fuliginea; [3]) was 0%.

CO/N=C(/C(=O)OC)c1ccccc1COc1ccccc1C [kresoxim-methyl (XVI) (15), kresoxim-methyl] showed a pest or weed control at 1 g/ha (Phytophthora infestans; [4]) of 35% and a pest or weed control at 2 g/ha (Sphaerotheca fuliginea; [3]) of 0%.

For OC(Cc1ccccc1Cl)(Cn1nc[nH]c1=S)C1(Cl)CC1 (centres unmarked) [Compound of the formula (LXX) (69), 2-(1-chloro-cyclopropyl)-1-(2-chlorophenyl)-3-(5-mercapto-1,2,4-triazol-1-yl)-propan-2-ol], the pest or weed control at 12.5 g/ha [1] was 90%, the Efficacy in % (Pyrenophora teres) was 70% and the pest or weed control at 5 g/ha (Phytophthora infestans; [4]) was 0%.

With CCCCNC(=O)n1c(NC(=O)OC)nc2ccccc21 [benomyl (LXXXIII) (30), benomyl] the pest or weed control at 5 g/ha (Sphaerotheca fuliginea; [3]) was 50%.

Compound Cc1ccc(C(C)NC(=O)[C@@H](NC(=O)OC(C)C)C(C)C)cc1 (some centres unmarked) [iprovalicarb (LI) (50), iprovalicarb] has a pest or weed control at 0.5 g/ha (Phytophthora infestans; [4]) of 2% and a pest or weed control at 2 g/ha (Sphaerotheca fuliginea; [3]) of 0%.

N=C(N)NCCCCCCCCNCCCCCCCCNC(=N)N [(XIX) (18), N,N′″-(iminodi-8,1-octanediyl)bis-guanidine triacetate] gave a pest or weed control at 2.5 g/ha (Sphaerotheca fuliginea; [3]) of 43%.

Compound CC1(C)CCC(Cc2ccc(Cl)cc2)C1(O)Cn1cncn1 (centres unmarked) [metconazole (XII) (11), metconazole] has an Efficacy in % [2] of 50%.

With CC(C)(C)C(O)(CCc1ccc(Cl)cc1)Cn1cncn1 (centres unmarked) [tebuconazole (IV) (3), tebuconazole] the Efficacy in % (Leptosphaeria nodorum) was 50%, the Efficacy in % (Pyrenophora teres) was 0% and the pest or weed control at 2.5 g/ha (Sphaerotheca fuliginea; [3]) was 0%.

Work on Cc1ccc(N(SC(F)(Cl)Cl)S(=O)(=O)N(C)C)cc1 [tolylfluanid] yielded a pest or weed control at 40 g/ha (Sphaerotheca fuliginea; [3]) of 0%.

O=C1c2ccccc2C(=O)N1SC(Cl)(Cl)Cl [folpet] was tested, and the pest or weed control at 40 g/ha (Sphaerotheca fuliginea; [3]) was 0%.

CSC1=N[C@@](C)(c2ccccc2)C(=O)N1Nc1ccccc1 [fenamidone] was tested, and the pest or weed control at 0.5 g/ha (Phytophthora infestans; [4]) was 48% and the pest or weed control at 0.5 g/ha (Sphaerotheca fuliginea; [3]) was 0%.

Work on CC1COC(Cn2cncn2)(c2ccc(Oc3ccc(Cl)cc3)cc2Cl)O1 (centres unmarked) [difenoconazole] yielded a pest or weed control at 5 g/ha (Phytophthora infestans; [4]) of 5% and a pest or weed control at 5 g/ha (Sphaerotheca fuliginea; [3]) of 14%.

For CO/N=C(/C(=O)OC)c1ccccc1CO/N=C(\C)c1cccc(C(F)(F)F)c1 [trifloxystrobin (LXXVI) (75), trifloxystrobin], the pest or weed control at 2 g/ha (Sphaerotheca fuliginea; [3]) was 43%.

For CCCN(CCOc1c(Cl)cc(Cl)cc1Cl)C(=O)n1ccnc1 [prochloraz (XXI) (20), prochloraz], the pest or weed control at 10 g/ha (Phytophthora infestans; [4]) was 0%.

In the case of Cc1cc(C2CC2)nc(Nc2ccccc2)n1 [cyprodinil (XVIII) (17), cyprodinil], the pest or weed control at 12.5 g/ha [1] is reported as 0%, the Efficacy in % (Pyrenophora teres) is reported as 0% and the pest or weed control at 10 g/ha (Sphaerotheca fuliginea; [3]) is reported as 22%.

Source: patent US20030229087A1 (priority 2002, published 2003)
